Reference: patent publication US12478624B2, “Heterocyclic derivatives, pharmaceutical compositions and their use in the treatment or amelioration of cancer” (Tolremo Therapeutics AG, priority 2019, dated 2025)

Columns and labels:
CBP Bromodomain = target: T1, CBP Bromodomain (Homo sapiens, UniProt Q92793); assay: Assay 3: CBP bromodomain binding assay (TR-FRET)
T1 construct: purchased Cayman chemicals 600850
Method: Assay 3 CBP Bromodomain Binding Assay (TR-FRET)
Compounds solutions of 10 mM in DMSO were pre-diluted in DSMO to 25× stock solutions in DMSO. These were then diluted down to 4× in assay buffer. A dilution series in assay buffer was performed keeping the DMSO concentration stable. 5 μl compound in assay buffer was transferred into the assay plate (provided by assay kit) and the TR-FRET assay Cayman chemicals; 600850) was performed using the manufactor's instructions. After 1 hour incubation at room temperature in the darks, assay plates were read in a Tecan M1000 plate reader or a Tecan Spaks reader using the TR-FRET mode (top read; excitation 340 nm bandwidth […]; emission 620 nm bandwidth […]; gain optimal determined for the first well, number of flashes: 5; flash frequency 100 Hz; integration time: 500 μs, lag time: 100 μs, room temperature). The TR-FRET ratio was calculated by deviding 670 nm emission by 620 nm emission. Values were log transformed and non-linear regression with variable slope (4 parameters) was used to fit values to a dose-response curve to evaluate EC50 values.

OPM-2 = assay: Assay 2: multiple myeloma cellular efficacy, PrestoBlue cell proliferation/survival; assay type: cell-based; settings: Homo sapiens, 96 h, OPM-2 cells, 4 days
Method in brief: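 Cells seeded at 10000/well and exposed to a compound dose range or vehicle for 4 days, then stained with PrestoBlue for 2 h at 37 °C. Fluorescence was background-subtracted and normalized to vehicle; EC50 came from a four-parameter variable-slope fit against log concentration.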

A375 cells = assay: Assay 1: A375 cells treated with S1152, S1008 and compound, immunofluorescence (sc-365823) signal; assay type: cell-based; settings: 1 μM S1152 + 0.5 μM S1008, one day
Method in brief: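 A375 cells treated one day with 1 μM S1152, 0.5 μM S1008 and compound dose ranges in DMEM/10% FCS, then fixed, permeabilised and immunostained. Green signal normalised to nuclear counterstain (ethidium-type or DAPI), log ratio fitted by four-parameter regression for EC50.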

T1 sequence (Q92793 1085-1192 limits assumed): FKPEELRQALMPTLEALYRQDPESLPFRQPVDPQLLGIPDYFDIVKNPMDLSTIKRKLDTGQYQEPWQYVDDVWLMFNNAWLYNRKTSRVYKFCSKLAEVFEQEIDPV

Row | Structure (SMILES) | EC50 (CBP Bromodomain) [nM] | EC50 (OPM-2) [nM] | EC50 (A375 cells) [nM]
1 | CC(=O)N1C[C@H](c2nc(Nc3cc(C)nc(N4CCOCC4)c3)cc(-c3cnccn3)n2)CC[C@@H]1C [Compound 00152, 1-((2S,5R)-2-methyl-5-(4-((2-methyl-6-morpholinopyridin-4-yl)amino)-6-(pyrazin-2-yl)pyrimidin-2-yl)piperidin-1-yl)ethan-1-one] | < 200 | 200 to 1000 | < 200
2 | CC(=O)N1C[C@H](c2nc(Nc3cccc(-c4cn(C)nn4)c3)cc(-c3cccnc3)n2)CC[C@@H]1C [Compound 00053, 1-((2S,5R)-2-methyl-5-(4-((3-(1-methyl-1H-1,2,3-triazol-4-yl)phenyl)amino)-6-(pyridin-3-yl)pyrimidin-2-yl)piperidin-1-yl)ethan-1-one] | 1000 to 10000 | < 200 | < 200
3 | CC(=O)N1C[C@H](c2nc(Nc3ccccc3)cc(-c3cncnc3)n2)CC[C@@H]1C (racemic) [Compound 00072, (+/−)-cis-1-(2-methyl-5-(6-(phenylamino)-[4,5′-bipyrimidin]-2-yl)piperidin-1-yl)ethan-1-one] | 200 to 1000 | 200 to 1000 | 200 to 1000
